According to patent publication US20260234549A1, “NON-INVASIVE TUNING OF PROTEIN ALIGNMENT” (NEW YORK UNIVERSITY IN ABU DHABI CORPORATION, priority 2023, published 2026):

Assays:
[1] = test system: fibroblasts cultured on matrix with aligned collagen fibrils (30° condition); assay: αSMA gene expression (RT-qPCR) of fibroblasts on aligned collagen matrix treated with inhibitors; assay type: cell-based, human; conditions: 3 days; 1 μM verteporfin, 10 μM blebbistatin, 20 μM Y-27632, 2 μM SB-431542; 30° aligned matrix; normalized to fibroblasts
Description: Quantitative gene expression analysis: Gene expression analysis for fibroblast differentiation was performed using an established protocol. Briefly, TRIzol (Thermo Fisher Scientific, Dreieich, Germany) was used to extract total RNA. The obtained RNA was converted into complementary DNA (cDNA) using a high-capacity cDNA reverse transcription kit (Applied Biosystems, Waltham, USA). The concentration and the ratio of absorbance at 260 nm and 280 nm of cDNA were quantified using a Nanodrop (Thermo Fisher Scientific, Dreieich, Germany) prior to performing gene expression analysis. Ribosomal protein S26 (RPS26) was used as a reference gene. […] The primer sequences are listed in Table 1. qPCR was performed using SYBR Green PCR Master Mix (Applied Biosystems, Waltham, USA). The qPCR procedure was set as follows: denaturation for 5 min at 95° C.; 45 cycles of denaturation (95° C., 15 s), annealing under primer-specific conditions (30 s) and target gene-specific extension (30 s at 72° C.). The fluorescence signal was measured for 20 s at 72° C. To confirm the specificity of the PCR products, melting curve analysis was performed at the end of each run. Experiments were performed in 4 replicates. Treatment with inhibitors: Fibroblasts cultured onto matrix reconstituted on inclined surfaces with an angle of 30° were treated with 1 μM verteporfin (YAP inhibitor; Sigma-Aldrich, Darmstadt, Germany), 10 μM blebbistatin (myosin inhibitor; Tocris, Bristol, United Kingdom), 20 μM Y-27632 (Rho-associated kinase (ROCK) inhibitor; Tocris, Bristol, United Kingdom) and 2 μM SB-431542 (TGF-31 receptor kinase inhibitor; Sigma-Aldrich, Darmstadt, Germany) for 3 days. After 3 days of treatment, RNA was extracted for the study of αSMA expression using qPCR, as stated in the quantitative gene analysis section. Experiments were performed in 6 replicates.

[2] = test system: fibroblasts cultured on matrix with aligned collagen fibrils (30° condition); assay: Live/dead assay (DRAQ7, flow cytometry) of inhibitor-treated fibroblasts on aligned matrix; assay type: cell-based; conditions: 3 days; 1 μM verteporfin, 10 μM blebbistatin, 20 μM Y-27632, 2 μM SB-431542; 30° aligned matrix
Description: Treatment with inhibitors: Fibroblasts cultured onto matrix reconstituted on inclined surfaces with an angle of 30° were treated with 1 μM verteporfin (YAP inhibitor; Sigma-Aldrich, Darmstadt, Germany), 10 μM blebbistatin (myosin inhibitor; Tocris, Bristol, United Kingdom), 20 μM Y-27632 (Rho-associated kinase (ROCK) inhibitor; Tocris, Bristol, United Kingdom) and 2 μM SB-431542 (TGF-31 receptor kinase inhibitor; Sigma-Aldrich, Darmstadt, Germany) for 3 days. After 3 days of treatment, RNA was extracted for the study of αSMA expression using qPCR, as stated in the quantitative gene analysis section. Experiments were performed in 6 replicates.
Quantitative analysis of cell number and dead cells: Collagen matrices were digested using 2 mg/mL type IV collagenase (Thermo Fisher Scientific, Dreieich, Germany) for 15 min under standard cell culture conditions. Afterwards, cells were stained with DRAQ7 (dead cell staining dye; Biolegend, San Diego, USA) for 10 min on ice. Cells were analyzed using an Attune NxT Flow Cytometer equipped with an autosampler (Thermo Fisher Scientific, Dreieich, Germany). […] The percentage of dead cells was quantified by counting the number of cells that were positive for DRAQ7. At least 20,000 cells were analyzed per condition and replicate. […]

Row | Compound | αSMA gene expression [1] | cell death (percentage of dead cells) [2]
1 | C[C@@H](N)[C@H]1CC[C@H](C(=O)Nc2ccncc2)CC1 [Y-27632] | significantly reduced | –
2 | Cc1ccc2c(c1)C(=O)C1(O)CCN(c3ccccc3)C1=N2 (stereo not shown) [blebbistatin] | significantly reduced | without harming cells
3 | NC(=O)c1ccc(-c2nc(-c3ccc4c(c3)OCO4)c(-c3ccccn3)[nH]2)cc1 [SB-431542] | significantly reduced | –
